Assay results reported in ChEMBL document CHEMBL6134907, “Synthesis of 5,9- and 5,8-Diaminoalkoxy Substituted Benzophenanthridinone Analogues as Tyrosyl-DNA Phosphodiesterase 1 Inhibitors and Their Radiosensitizing Activity” (J Med Chem, 2025).
Activity calls are given as the source filed them. The calls are words filed in the database; no cut-off is given here.

Key:
HCT-116 [1] = assay: Reduction of XRCC4 expression in wild type human HCT-116 cells assessed as reduction in protein level at 5 to 10 uM radiated with 4 GY ionizing radiation (IR) measured after 24 hrs by Western blot analysis; assay type: functional, cell-based; conditions: dose 5-10 µM
HCT-116 [2] = assay: Reduction in recruitment of XRCC4 at damage site of human HCT-116 cells at 5 uM measured after 3 hrs by fluorescence colocalization assay; assay type: functional, cell-based
HCT-116 [3] = assay: In vivo radiosensitizing activity in human HCT-116 cells xenografted in BALB/c mouse assessed as sensitization of 1 GY ionizing radiation induced reduction in tumor weight at 10 mg/kg, ip every day for 14 days radiated for every 2 days once (reference value: 35%); assay type: functional; design: scale not given: the % may be the effect or the level left; conditions: time 14 day
SW480 = assay: Synergistic cytotoxicity against human SW480 cells assessed as combination index at 5 uM incubated for 48 hrs in presence of 2GY ionizing radiation (IR); assay type: functional
HCT-116 [4] = assay: Reduction of XRCC4 expression in wild type human HCT-116 cells assessed as reduction in protein level at 5 to 10 uM measured after 24 hrs by Western blot analysis; assay type: functional, cell-based; conditions: dose 5-10 µM
HCT-116 [5] = assay: Induction of cell cycle arrest in human HCT-116 cells assessed as accumulation of cells at G0/G1 phase at 10 uM measured after 24 hrs by Propidium iodide (PI) staining based assay (reference value: 69.35%); assay type: functional
[6] = MRT infinity in male Sprague-Dawley rat at 5 mg/kg, IG measured up to 24 hrs by LCMS-MS analysis; assay type: ADME, organism-based; conditions: in vivo, po
HCT-116 [7] = assay: Effect on Ku70/80 expression in wild type human HCT-116 cells assessed as change in protein level at 5 to 10 uM measured after 24 hrs by Western blot analysis; assay type: functional, cell-based; conditions: dose 5-10 µM
HCT-116 [8] = assay: Suppression of ionizing radiation (IR) induced DNA damage in human wild type HCT-116 cells assessed as HR repair activity by measuring GFP positive cells at 1 uM measured after 24 hrs by flow cytometry; assay type: functional, cell-based
HCT-116 [9] = assay: Effect on ROS generation in human HCT-116 cells assessed as increase in intracellular ROS level at 5 to 10 uM measured after 20 mins by ELIASA analysis; assay type: functional, cell-based; conditions: dose 5-10 µM
[10] = Toxicity in BALB/c mouse xenografted with human HCT-116 cells assessed as change in heart weight at 1 to 10 mg/kg, ip every day for 14 days radiated for every 2 days once; assay type: organism-based; conditions: in vivo, 336 h, dose 1-10 mg/kg, time 14 day
[11] = system: Tyrosyl-DNA phosphodiesterase 1/Deoxyribonucleic acid; assay: Stabilization of TDP1/DNA complex in human HCT-116 cells at 100 uM by Cellular Thermal Shift Assay (CETSA); assay type: cell-based
[12] = AUC infinity in male Sprague-Dawley rat at 5 mg/kg, IG measured up to 24 hrs by LCMS-MS analysis; assay type: ADME, organism-based; conditions: in vivo, po
HCT-116 [13] = assay: Anti-tumor activity against human HCT-116 cells xenografted in BALB/c mouse assessed as tumor growth inhibition at 10 mg/kg, ip every day for 14 days; assay type: functional, organism-based; conditions: time 14.0 day
HCT-116 [14] = assay: Induction of apoptosis in human HCT-116 cells assessed as late apoptotic cells at 10 uM measured after 24 hrs by FITC Annexin V/PI apoptosis detection assay (reference value: 0%); assay type: functional
[15] = MRT infinity in male Sprague-Dawley rat at 1 mg/kg, iv measured up to 24 hrs by LCMS-MS analysis; assay type: ADME, organism-based; conditions: in vivo
HCT-116 [16] = assay: In vivo radiosensitizing activity in human HCT-116 cells xenografted in BALB/c mouse assessed as sensitization of 1 GY ionizing radiation induced reduction in tumor weight at 1 mg/kg, ip every day for 14 days radiated for every 2 days once (reference value: 35%); assay type: functional; design: scale not given: the % may be the effect or the level left; conditions: time 14 day
HCT-116 [17] = assay: Induction of cell cycle arrest in human HCT-116 cells assessed as accumulation of cells at G0/G1 phase at 5 uM measured after 24 hrs by Propidium iodide (PI) staining based assay (reference value: 69.35%); assay type: functional
HCT-116 [18] = assay: Induction of apoptosis in human HCT-116 cells assessed as viable cells at 5 uM measured after 24 hrs by FITC Annexin V/PI apoptosis detection assay (reference value: 99.71%); assay type: functional; conditions: read-out: Activity
HCT-116 [19] = assay: Induction of 4GY ionizing radiation (IR) induced apoptosis in human HCT-116 cells assessed as viable cells at 5 uM measured after 24 hrs by FITC Annexin V/PI apoptosis detection assay (reference value: 66.88%); assay type: functional; conditions: read-out: Activity
[20] = Tmax in male Sprague-Dawley rat at 1 mg/kg, iv measured up to 24 hrs by LCMS-MS analysis; assay type: ADME, organism-based; conditions: in vivo
HCT-116 [21] = assay: Cytotoxicity against human HCT116 cells assessed as cell killing at 0.5 uM relative to control; assay type: functional
HCT-116 [22] = assay: Effect on Lig4 expression in wild type human HCT-116 cells assessed as change in protein level at 5 to 10 uM radiated with 4 GY ionizing radiation (IR) measured after 24 hrs by Western blot analysis; assay type: functional, cell-based; conditions: dose 5-10 µM
HCT-116 [23] = assay: Induction of apoptosis in human HCT-116 cells assessed as induction of 4GY ionizing radiation (IR) induced cleaved Caspase-9 at 5 uM measured after 24 hrs by Western blot analysis; assay type: functional, cell-based
HCT-116 [24] = assay: Induction of 4GY ionizing radiation (IR) induced apoptosis in human HCT-116 cells assessed as early apoptotic cells at 5 uM measured after 24 hrs by FITC Annexin V/PI apoptosis detection assay (reference value: 17.50%); assay type: functional
[25] = Induction of 4GY ionizing radiation (IR) induced cell cycle arrest in human HCT-116 cells assessed as accumulation of cells at G0/G1 phase at 10 uM measured after 24 hrs by Propidium iodide (PI) staining based assay (reference value: 65.99%); assay type: functional
[26] = Toxicity in BALB/c mouse xenografted with human HCT-116 cells assessed as change in spleen weight at 1 to 10 mg/kg, ip every day for 14 days radiated for every 2 days once; assay type: organism-based; conditions: in vivo, 336 h, dose 1-10 mg/kg, time 14 day
HCT-116 [27] = assay: Reduction in recruitment of XRCC4 at damage site of human HCT-116 cells at 5 uM radiated with 4 GY ionizing radiation (IR) measured after 3 hrs by fluorescence colocalization assay; assay type: functional, cell-based
[28] = AUClast in male Sprague-Dawley rat at 1 mg/kg, iv measured up to 24 hrs by LCMS-MS analysis; assay type: ADME, organism-based; conditions: in vivo
HCT-116 [29] = assay: Reduction of XRCC4 expression in wild type human HCT-116 cells assessed as reduction in mRNA level at 5 to 10 uM measured after 24 hrs by qRT-PCR analysis; assay type: functional, cell-based; conditions: dose 5-10 µM
HCT-116 [30] = assay: Synergistic cytotoxicity against human SgTDP1-HCT-116 cells (TDP1 knockout) assessed as combination index at 0.5 uM incubated for 48 hrs in presence of 2GY ionizing radiation; assay type: functional
HCT-116 [31] = assay: Induction of apoptosis in human HCT-116 cells assessed as induction of 4GY ionizing radiation (IR) induced cleaved Caspase-7 at 5 uM measured after 24 hrs by Western blot analysis; assay type: functional, cell-based
[32] = Suppression of ionizing radiation (IR) induced DNA damage in human SgTDP1-HCT-116 cells (TDP1 knockout) assessed as NHEJ repair activity by measuring GFP positive cells at 1 uM measured after 24 hrs by flow cytometry (reference value: 100%); assay type: functional

For `COc1cc2c(=O)n(CCN(C)C)c3c4cc5c(cc4ccc3c2cc1OCCN1CCOCC1)OCO5`, the Activity (HCT-116 [1]) was “Active”, the Activity (HCT-116 [2]) was “Active” and the Activity (HCT-116 [3]) was 77%. For the same compound, the CI (SW480) was <0.3, the Activity (HCT-116 [4]) was “Active” and the Activity (HCT-116 [5]) was 63.63%. For the same compound, the MRT inf [6] was 7.06 h, the Activity (HCT-116 [7]) was “inactive” and the Activity (HCT-116 [8]) was “inactive”. For the same compound, the Activity (HCT-116 [9]) was “inactive”, the Activity [10] was “Non-toxic” and the Activity [11] was “Active; Coincubation With Ionizing Radiation Showed Greater Complex Formation”. For the same compound, the AUC(0-inf) [12] was 735 ng·h/mL, the TGI (HCT-116 [13]) was “inactive” and the Activity (HCT-116 [14]) was 13.67%. The MRT inf [15] was 3.33 h, the Activity (HCT-116 [16]) was 60% and the Activity (HCT-116 [17]) was 69.89%. The viability at 5 µM (HCT-116 [18]) was 78.2%, the viability at 5 µM (HCT-116 [19]) was 61.3% and the Tmax [20] was 4.98 min. The Activity (HCT-116 [21]) was 11%, the Activity (HCT-116 [22]) was “inactive” and the Activity (HCT-116 [23]) was “Active”. The Activity (HCT-116 [24]) was 19.39%, the Activity [25] was 20.79% and the Activity [26] was “Non-toxic”. For the same compound, the Activity (HCT-116 [27]) was “Active”, the AUC(0-t) at 24 h [28] was 247 ng·h/mL and the Activity (HCT-116 [29]) was “Active”. The CI (HCT-116 [30]) was 0.94, the Activity (HCT-116 [31]) was “Active” and the Activity [32] was 7%.
